Test results taken from US12398110B2, “Second generation inhibitors of mitochondrial permeability transition pore with improved plasma stability” (Oregon Health & Science University, priority 2019, dated 2025).
Where two headings read alike, the source gives them in different places.

Assays:
Type in all cases: biochemical
[1] = tested on: inner mitochondrial membrane potential; test: Rhodamine 123 (Rh123) uptake, mitochondrial membrane potential of isolated mouse liver mitochondria
Description: We next evaluated the mitochondrial toxicity of the new triazole analogs by testing their ability to interfere with accumulation of the membrane-permeant cationic fluorescent dye rhodamine 123 (Rh123). The mitochondrial uptake of positively charged Rh123 is driven by the inside negative IMM potential, which is built by the respiratory chain or maintained by ATP hydrolysis if certain conditions are met. […] It should be noted, however, that toxicity for these compounds only occurs at ˜10-1000-fold higher concentrations compared to mtPTP inhibition, providing a good therapeutic window.
Assessment of mitochondrial membrane potential. Mitochondrial membrane potential—to evaluate toxicity—of isolated mouse liver mitochondria was assessed based on fluorescence quenching of the cationic fluorescent dye Rh123 upon its accumulation into mitochondrial matrix due to inside negative membrane potential. Compounds that interfere with the build-up or maintenance of IMM potential would shift Rh123 fluorescence to higher values compared to DMSO treated samples. Uncoupler FCCP was used to account for nonspecific fluorescence. First, 0.1 mL of SAB was dispensed to a 96-well black assay plate. A set of wells also contained 0.8 μm FCCP (to prevent Rh123 uptake). The test wells contained a range of concentrations (in 1:2 serial dilutions) of the compounds of interest or 2% DMSO. Then, 0.1 mL of 0.5 mg/mL mitochondria in SAB devoid of respiratory substrates but supplemented with 0.8 μm Rh123 were added to all wells of the assay plate. Fluorescence intensity (ex/em 485/535 nm) was read on a Tecan Infinite F200 plate reader for 7 min and value at 5 min was considered for analysis. EC50s±SE were determined with OriginPro software by applying Hill1 function fitting algorithm on average concentration response data of n=3 independent preparations.

mtPTP [2] = test: Ca2+ overload induced mitochondrial swelling in isolated mouse liver mitochondria; conditions: for mtPTP inhibitory activity (in words): SAR discussion of Table 2
Procedure: We next sought to evaluate the effects of TR001-13 on mtPTP activity in vitro. This was performed on isolated mitochondria. In isolated mitochondria induction of mtPTP opening leads to mitochondrial swelling due to the oncotic pressure gradient created by matrix proteins >1.5 kDa that cannot diffuse through the open pore. In in vitro experiments, where isolated mitochondria are routinely suspended in sucrose-based isosmotic solutions, the change in mitochondrial size can be measured spectrometrically by detecting the decrease in light scattering at 540 nm.
(§1) Isolation of mitochondria. C57BL6/N mouse liver mitochondria were prepared from 2 to 6 month old male mice by standard differential centrifugation. Mice fed ad libitum were euthanized with CO2 followed cervical dislocation, their livers were existed and placed in a glass beaker containing ice-cold isolation buffer (IB: 0.25 m sucrose, 10 mm Tris-HCl, 0.1 mm EGTA-Tris, pH 7.4) supplemented with fatty acid free bovine serum albumin. Livers were then cut into small pieces with scissors, rinsed with ice-cold IB, and passed through a pre-chilled Potter homogenizer with Teflon pestle. The homogenate (˜30 mL per liver) was transferred to centrifuge tubes, and unbroken cells and nuclei were removed by centrifugation at 700 g for 10 min at 4° C. The supernatant containing mitochondria and other organelles was transferred to new tubes and centrifuged at 6000 g for 10 min at 4° C. The resulting supernatant was discarded and mitochondrial pellet was carefully suspended in ice-cold IB and spun at 9500 g for 5 min at 4° C. The pellet was suspended in IB to give a protein concentration of ˜60-80 mg/mL and stored on ice. Experiments were started immediately and completed within 5 h. Protein concentration was determined by the Biuret method.
Assessment of mitochondrial swelling. Changes in mitochondrial volume of isolated mouse liver mitochondria were followed in a 96-well clear assay plate at a final volume of 0.2 mL and 0.25 mg/mL mitochondrial protein. Absorbance was read for 30 min at 540 nm on a Tecan Infinite F200 plate reader. Activity of test compounds was addressed as follows: First, 0.1 mL of sucrose assay buffer (SAB: 0.250 m sucrose, 10 mm MOPS-Tris, 0.01 mm EGTA-Tris, 1.0 mm phosphoric acid-Tris, 10 mm glutamate and 5 mm malate, pH 7.4) supplemented with twice the CaCl2 concentration required to induce mitochondrial swelling (which was determined for each preparation of mitochondria, typically 50 μm) was dispensed to the assay plate. A set of wells also contained 2.0 mm EGTA (to prevent mitochondrial swelling). The test wells contained a range of concentrations (in 1:2 serial dilutions) of the compounds of interest or 2% DMSO. Experiments were started by the addition of 0.1 mL of mitochondrial suspension (0.5 mg/mL mitochondria in SAB without respiratory substrates) to the assay plates. EC50s±SE were determined with OriginPro software by applying Hill1 function fitting algorithm on average concentration response data of n=3-41 independent preparations.

mtPTP [3] = test: Ca2+ retention capacity (CRC) of isolated mouse liver mitochondria
Procedure: CRC determines the Ca^2+ threshold required for mtPTP activation; inhibitors of mtPTP are expected to increase the Ca^2+ threshold required for mtPTP induction. Extramitochondrial Ca^2+ changes are detected using the membrane-impermeant Ca^2+ indicator, Calcium Green-5N.
as §1
Assessment of Ca^2+ retention capacity (CRC). CRC of isolated mouse liver mitochondria was assessed as follows: First, 0.1 mL of SAB were dispensed to a 96-well black assay plate in the presence of 2% DMSO (control wells) or varying concentrations of test compounds, in 1:2 serial dilutions. Then, 0.1 mL of 0.5 mg/mL mitochondria in SAB devoid of respiratory substrates, but supplemented with 1 μm Calcium Green-5N were added to all wells of the assay plate. A train of 10 μm CaCl2 pulses was added at 2 min intervals, and fluorescence intensity (ex/em 485/535 nm) was read on Tecan Infinite F200 plate reader.

[4] = interference with Rh123 uptake to mitochondria, average ± SEM, n = 3, read-out: Rh123 uptake EC50
[5] = isolated mouse liver mitochondria, average ± SEM, n = 3-41, read-out: Mitochondrial Swelling EC50
[6] = compound treated CRC to DMSO treated CRC0 ratio, 1.25 μM, average ± SEM, n = 3-25
[7] = Mouse Liver Mitochondria (MLM), comparative examples, read-out: Rh123 EC50
[8] = Mouse Liver Mitochondria (MLM), comparative examples, read-out: Swelling EC50
[9] = Mouse Liver Mitochondria (MLM), comparative examples

SMILES | EC50 [1, 7] [µM] | EC50 (mtPTP [2]; [8]) [µM] | CRC/CRC0 at 1.25 μM (mtPTP [3]; [9]) | further results
Cc1ccc(Cl)cc1NC(=O)c1cn(-c2cc(O)ccc2F)nn1 [TR004, N-(5-chloro-2-methylphenyl)-1-(2-fluoro-5-hydroxyphenyl)-1H-1,2,3-triazole-4-carboxamide] | – | – | – | EC50 [1, 4]: > 40 µM; mtPTP inhibitory activity (in words) (mtPTP [2]): inactive; EC50 (mtPTP [2]; [5]): > 20 µM; CRC/CRC0 at 1.25 μM (mtPTP [3]; [6]): 1.3 ± 0.03
Cc1ccc(Cl)cc1NC(=O)c1cn(-c2ccc(F)c(O)c2F)nn1 [drawing 58] | > 40 | 0.782 | 2.6 | –
C#Cc1ccc(Cl)cc1NC(=O)c1cn(-c2ccc(F)c(O)c2)nn1 | > 40 | 0.513 | 3.7 | –
Cc1ccc(Cl)cc1NC(=O)c1cn(-c2ccc3[nH]c(=O)[nH]c3c2)nn1 | – | > 20 | 1 | –
Cc1c(Cl)cccc1NC(=O)c1cn(-c2ccc(F)c(O)c2)nn1 | > 40 | 0.0051 | 5.4 | –
Cc1ccc(-n2cc(C(=O)Nc3cc(Cl)ccc3C)nn2)cc1O [TR011, N-(5-chloro-2-methylphenyl)-1-(3-hydroxy-4-methylphenyl)-1H-1,2,3-triazole-4-carboxamide] | – | – | – | EC50 [1, 4]: > 40 µM; mtPTP inhibitory activity (in words) (mtPTP [2]): inactive; EC50 (mtPTP [2]; [5]): > 20 µM; CRC/CRC0 at 1.25 μM (mtPTP [3]; [6]): 1.4 ± 0.1
Cc1ccc(Cl)cc1NC(=O)c1cn(-c2ccc(F)c(N)c2)nn1 | – | > 20 | 1 | –
Cc1ccc(Cl)cc1NC(=O)c1cn(-c2ccc(F)c(O)c2F)nn1 [TR005] | – | – | – | EC50 [1, 4]: > 40 µM; mtPTP inhibitory activity (in words) (mtPTP [2]): decreased activity; EC50 (mtPTP [2]; [5]): 0.782 ± 0.114 µM; CRC/CRC0 at 1.25 μM (mtPTP [3]; [6]): 2.6 ± 0.2
Cc1ccc(Cl)cc1NC(=O)c1cn(-c2cc(O)cc(Cl)c2)nn1 [TR008, N-(5-chloro-2-methylphenyl)-1-(3-chloro-5-hydroxyphenyl)-1H-1,2,3-triazole-4-carboxamide] | – | – | – | EC50 [1, 4]: > 40 µM; EC50 (mtPTP [2]; [5]): 0.028 ± 0.005 µM; fold decrease in activity compared to TR002 (mtPTP [2]; mitochondrial swelling, vs TR002): 2 fold; CRC/CRC0 at 1.25 μM (mtPTP [3]; [6]): 7.3 ± 1.1
Cc1ccc(-n2cc(C(=O)Nc3cc(Cl)ccc3C)nn2)cc1O [drawing 67] | > 40 | > 20 | 1.4 | –
Cc1ccc(Cl)cc1NC(=O)c1cn(-c2cc(O)cc(F)c2)nn1 [drawing 52] | 14 | 0.01 | 13.09 | –
C#Cc1ccc(C)c(NC(=O)c2cn(-c3ccc(F)c(O)c3)nn2)c1 | > 40 | 7 | 1.3 | –
Cc1ccc(Cl)cc1NC(=O)c1cn(-c2cc(O)ccc2F)nn1 [drawing 53] | > 40 | > 20 | 1.4 | –
Cc1ccc(Cl)cc1NC(=O)c1cn(-c2ccc(F)c(NS(=O)(=O)C(F)(F)F)c2)nn1 | – | > 20 | 1 | –
Cc1ccc(Cl)cc1NC(=O)c1cn(-c2cc(O)cc(Cl)c2)nn1 [drawing 69] | > 40 | 0.028 | 7.3 | –
Cc1ccc(Cl)cc1NC(=O)c1cn(-c2cccc(O)c2F)nn1 [drawing 51] | 29 | 0.152 | 7.8 | –
Cc1ccc(Cl)cc1NC(=O)c1cn(-c2cccc(C(=O)O)c2)nn1 | – | > 20 | 1 | –
Cc1ccc(Cl)cc1NC(=O)c1cn(-c2cc(F)cc(OC(=O)N(C)C)c2)nn1 | – | > 20 | 1.5 | –
C#Cc1ccc(C(C)=O)cc1NC(=O)c1cn(-c2ccc(F)c(O)c2)nn1 | – | > 20 | – | –
Cc1ccc(Cl)cc1NC(=O)c1cn(-c2ccc(Br)c(NS(C)(=O)=O)c2)nn1 | – | > 20 | 1 | –
CC(=O)Nc1cc(-n2cc(C(=O)Nc3cc(Cl)ccc3C)nn2)ccc1F | – | > 20 | 1 | –
Cc1ccc(Cl)cc1NC(=O)c1cn(-c2ccc(F)c(NC(=O)C(F)(F)F)c2)nn1 | – | > 20 | 1 | –
Cc1ccc(Cl)cc1NC(=O)c1cn(-c2ccc(F)c(OC(=O)N(C)C)c2)nn1 | – | 0.153 | 3.9 | –
